Reference: article PMC12040169 (PLOS Biology, 2025)
Where “and” joins values, the source holds several entries; their conditions need not be identical. Equal values may be shown once.

What was measured:
HeLa = details: bulk resorufin, single well, 28.5 h, 10 µM, Bulk resorufin fluorescence
in vitro = details: human, hela cells, % viability

Compound	% viability (HeLa)	viability at 28.5 h, 10 µM (in vitro) [%]	viability at 28.5 h, 10 µM (in vitro; bulk resorufin, single well) [%]
c1ccc(-c2csc3ncnc(NCc4ccco4)c23)cc1 [CBK017506]	84.6%	91.1	–
O=S(=O)(/C=C/c1ccncc1)NCc1ccc2c(c1)OCO2 [CBK018566]	92.8%	91.3	–
CCc1cc(CN(CC)CC)n[nH]1 [CBK018654]	94.5%	114	–
CCn1c(C)nc2cc(C(=O)N3N=CCC3(O)C(F)(F)F)ccc21 (stereo not shown) [CBK019301]	108%	105	–
Oc1ccccc1-c1cc(-c2cc3ccccc3o2)no1 [CBK019513]	117%	113	–
COC(=O)c1ccccc1OC[C@@H]1CN(C(=O)C(C)(C)N)C[C@H]1c1cc2ccccc2o1 [CBK022525T]	92.2%	106	–
CCCC(=O)NCc1ccc(OC2CCNCC2)cc1 [CBK024489T]	112%	95.6	–
CCCC(=O)Nc1cc2ccccc2c(N2CCNCC2)n1 [CBK024608T]	104%	102	–
CC(C)(C)c1nc(CN2CCOCC2)ccc1O [CBK026614C]	111%	112	–
CC(C(=O)Nc1cncc(OC2CCNCC2)n1)c1ccccc1 (stereo not shown) [CBK026733T]	110%	99.2	–
Cc1cc(C(NC(C)(C)C)C(=O)O)cc(C)c1O (stereo not shown) [CBK027143]	90.9%	86.6	–
COC(=O)c1ccc(-c2nc3nnc(C)n3[nH]2)cc1 [CBK027508]	87.7%	103	–
CSc1ccc(CN2CCN(Cc3ccc(Br)cc3)CC2)cc1 [CBK027856]	96.4%	–	79.2
CC(C)[C@@H](CO)Nc1nccnc1-c1cccc(C(=O)O)c1 [CBK036665]	93%	85.6	–
Cc1cc(-c2nccnc2NCCCN2CCCC2=O)cc(C)c1O [CBK037632]	98%	94.1	–
Cc1nn(C)c(N2CCNCC2)c1NC(=O)C1CCC1 [CBK045923T]	96.2%	91.8	–
CCCC(=O)Nc1c(C)nn(C)c1N1CCNCC1 [CBK045924T]	102%	87.2	–
CN1CCN(S(=O)(=O)c2cccc3cccnc23)CC1 [CBK051241]	93.2%	106	–
Nc1ccc2cc(-c3ccccc3)cnc2n1 [CBK061881]	94.9%	81.7	–
Cc1cc(CNS(=O)(=O)c2sc3ccc(Cl)cc3c2C)no1 [CBK062277]	92.3%	109	–
NC(=O)CSc1nnc(-c2ccc(Cl)cc2)o1 [CBK068597]	89.3%	105	–
CCOC(=O)C1=C(C)NC(=O)NC1c1ccc(Cl)cc1Cl (stereo not shown) [CBK072057]	91%	93.2	–
CCCOc1cccc(C(=O)Nc2cccc(-c3nc4ncccc4o3)c2C)c1 [CBK072326]	106%	97.9	–
CC(C)Nc1nc(-c2cccnc2)nc2ccccc12 [CBK073006]	94.6% and 102%	91.1	–
O=C(CSc1nc2ccccc2[nH]1)Nc1ccccc1 [CBK073089]	91.6%	110	–

Compound	% viability (HeLa)	viability at 28.5 h, 10 µM (in vitro) [%]	viability at 28.5 h, 10 µM (in vitro; bulk resorufin, single well) [%]
O=S(=O)(Nc1ncc(Br)c2cccnc12)c1ccc(-c2ccccc2)cc1 [CBK073885]	110%	98.8	–
COc1cc(CNCc2cccnc2)cc(Br)c1OCc1ccc(Cl)cc1 [CBK074596C]	95.5%	107	–
O=C(O)CCCC(=O)N1CCN(Cc2ccc3c(c2)OCO3)CC1 [CBK074752]	80.8%	99.3	–
Nc1nc2cccnc2cc1-c1cccc(OCc2ccccc2)c1 [CBK081206]	105%	99.2	–
N#CCCCN1CCN(c2nccnc2OC2CCCCC2)CC1 [CBK082841T]	107%	87.4	–
CCC1CCCCN1C(=O)c1ccc(C(=O)NC)cc1 (stereo not shown) [CBK083371]	103%	95.6	–
COc1ccc(CN2CCCN(c3nccc(OCCN4CCOCC4)n3)CC2)cc1 [CBK083932]	108%	104	–
O=C1CCC(=O)N1CCOc1nccnc1OC1CCN(Cc2cccnc2)CC1 [CBK084339]	89.7%	107	–
Clc1ccc(CN2CCC(Oc3cncc(OCC4COc5ccccc5O4)n3)C2)cc1Cl (stereo not shown) [CBK084361]	90.5%	107	–
c1cncc(COc2cncc(OC3CCN(CCc4c[nH]c5ccccc45)C3)n2)c1 (stereo not shown) [CBK084471]	113%	111	–
Cc1onc(-c2ccccc2)c1C(=O)NCCNC(=O)c1c(-c2ccccc2)noc1C [CBK085092]	108%	106	–
CS(=O)(=O)Nc1cc2ccccc2c(-c2ccc(S(C)(=O)=O)cc2)n1 [CBK085756]	107%	95.6	–
CC(C)NC(=O)n1nccc1-c1cc(-c2ccccc2)no1 [CBK086581]	82.6%	102	–
CC(=O)c1sc(NC(=O)c2ccc(Cl)cc2)nc1C [CBK087686]	88.4%	86.7	–
Nc1nn2c(c1Cc1c(Cl)cccc1Cl)OCCCC2 [CBK089335]	86.2%	91.8	–
CC(C)Nc1cc(Sc2ccc(Cl)c(Cl)c2)ncn1 [CBK089500]	83.3%	90.8	–
COc1ccc2[nH]cc(CC(=O)N3CCC(C#N)(c4ccccc4)CC3)c2c1 [CBK091403]	105%	–	96.6
O=C(O)c1cccc(Sc2ncccc2C(F)(F)F)c1 [CBK093589]	108%	103	–
FC(F)(F)c1ccc(Sc2ccccn2)nc1 [CBK093785]	111%	100	–
Cc1ccc(S(=O)(=O)N2CCN(c3ccc(Cl)c(Cl)c3)CC2)c(C)c1 [CBK099298]	118%	111	–
CCOC(=O)CSc1nc2ccccc2nc1NC(C)C [CBK107166]	111%	101	–
O=C(NCCN1CCCC1)c1cc2cc(F)ccc2[nH]1 [CBK107278]	105%	106	–
Cc1cc(-c2cncc(NCCc3c[nH]c4ccccc34)n2)cc(C)c1O [CBK107896]	83%	101	–
FC(F)(F)c1cccc(-c2cnn(-c3ccncc3)n2)c1 [CBK112668]	93.6%	102	–
NCCCOc1nc2ccccc2nc1C(F)(F)F [CBK115295]	109%	96.8	–

Compound	% viability (HeLa)	viability at 28.5 h, 10 µM (in vitro) [%]	viability at 28.5 h, 10 µM (in vitro; bulk resorufin, single well) [%]
Fc1ccc(COc2cc(N3CCCC3)ncn2)cc1 [CBK115675]	96.4%	109	–
O=C(O)C1Cc2c([nH]c3ccccc23)C(c2ccc(Cl)cc2Cl)N1 (stereo not shown) [CBK115930]	96.2%	88.5	–
O=C(O)CCc1ccc(-c2cccs2)n1-c1cc(Cl)ccc1O [CBK131890]	106%	104	–
N#Cc1cccc(-c2ccc3c(c2)COC(C2CCN(C(=O)OCc4ccccc4)CC2)O3)c1 (stereo not shown) [CBK144640]	93%	101	–
COc1cccc2sc(NC(=O)c3ccc4c(c3)OCCO4)nc12 [CBK149285]	92.1%	99.1	–
CCN(Cc1ccccc1)C(=O)NCc1cc(C)on1 [CBK155211]	92.6%	106	–
CCN(Cc1ccccc1)C(=O)NCc1cccc(C(F)(F)F)c1 [CBK155216]	96.1%	110	–
N#CCCN(C(=O)NC(c1ccccc1)c1ccccc1)C1CCCCC1 [CBK156354]	104%	98.7	–
O=C(O)CCCNc1ccc(S(=O)(=O)N2CCCCC2)cc1 [CBK261001]	90.5%	96.7	–
O=C(O)c1ccc(CN(c2ccccc2)S(=O)(=O)c2ccccc2)cc1 [CBK262406]	82.8%	93.3	–
COc1ccc(-c2cc(C3CC3)nc(SCC(=O)O)c2C#N)cc1 [CBK262690]	90.1% and 95%	91.3	–
CCn1cc(C(=O)NN)c(=O)c2cc(F)c(N3CCOCC3)cc21 [CBK263050]	107%	99.9	–
Cc1cc2c(cc1C)NC(CC(=O)Nc1ccc(Cl)cc1)C(=O)N2 (stereo not shown) [CBK263245]	90.5%	83.4	–
O=C(CN1C(=O)C2CCCCC2C1=O)Nc1ccccc1C(=O)O (stereo not shown) [CBK264130]	108%	91.5	–
COc1ccccc1CC(=O)Nc1ccc(O)cc1C(=O)O [CBK264305]	91.2%	105	–
O=C(CC1Nc2ccccc2NC1=O)Nc1ccccc1 (stereo not shown) [CBK265365]	103%	99.8	–
CC1CCc2c(sc3ncnc(SCC(=O)N4CCOCC4)c23)C1 (stereo not shown) [CBK266192]	111%	105	–
COc1ccc(NC(=O)Nc2ccncc2)c(OC)c1 [CBK266973]	93.8%	95.5	–
O=C(O)c1ccc(S(=O)(=O)Nc2ccc(O)c(-c3c(O)ccc4ccccc34)c2)cc1 [CBK267667]	94.7%	108	–
O=C(O)C1CCN(C2CC(=O)N(CCc3ccccc3)C2=O)CC1 (stereo not shown) [CBK269100]	97.3%	97.1	–
Cc1nn(CC(C)C(=O)O)c(C)c1Br (stereo not shown) [CBK269756]	86.7%	92.4	–
Cc1ccc(CN2CCNC(=O)C2CC(=O)O)o1 (stereo not shown) [CBK269966]	91.7%	91.8	–
Cc1c2c(=O)n(-c3ccccc3)[nH]c2cc(=O)n1CCc1ccccc1 [CBK269995]	92.7% and 109%	101	–
O=C(O)CC1C(=O)NCCN1Cc1cccc(Oc2ccccc2)c1 (stereo not shown) [CBK270023]	103%	91.4	–
